Test results reported in US20110118277A1, “METHOD OF TREATING LIVER DISEASE” (priority 2003, published 2011).

What was measured:
G-CSF = test: Ribonuclease protection assay of whole liver RNA: G-CSF; assay type: in vivo, mouse; conditions: RPA, normalized to GAPDH, mean±SEM of 4 mice, HMCDE diet
Protocol: (§1) Total […] was isolated from frozen liver samples according to the method of Chomczynski and Sacchi as described in Gastroenterology 2002; 123: 1304-1310. KNA concentration was determined by optical density and quality was assessed by agarose gel electrophoresis and ethidium bromide staining. Commercial ribonuclease protection assay (RPA) kits with probes for murine cytokines (PharMingen, San Diego, Calif.) were used to evaluate factors that might be involved in the recruitment and expansion of HPC after liver injury. The factors studied were Stem Cell Factor (SCF), Hepatocyte Growth Factor (HGF), Interleukin-7 (IL-7), IL-11, Leukaemia Inhibitory Factor (LEF), Granulocyte-Macrophage Colony Stimulating Factor (GM-CSF), Granulocyte Colony, Stimulating Factor (G-CSF), Vascular Endothelial Growth Factor (VEGF), and its receptors, VEGFR1 and VEGFR3. Details of the RPA are described in J Pathol 2003; 199:191-200.
(§2) Total RNA was isolated from frozen liver samples as described in Mech Dev 120: 117-130, 2003. RNA concentration was determined by optical density and quality assessed by agarose gel electrophoresis and ethidium bromide staining. […]
(§3) In Table 1, Total liver RNA was obtained from 4 mice per treatment group and analyzed by RPA 20 μg RNA sample from each mouse was evaluated. Results are normalized to concurrently assessed expression of GAPDH in the same RNA samples. […]

VEGFR1 = test: Ribonuclease protection assay of whole liver RNA: VEGFR1; assay type: in vivo, mouse; conditions: RPA, normalized to GAPDH, mean±SEM of 4 mice, HMCDE diet
Protocol: as §1, §2, §3

LIN^−ve/Thy-1^+ve cells = test: Flow cytometry of putative bone marrow-derived hepatic progenitors in liver of HMCDE-fed mice; assay type: in vivo, mouse; conditions: FIG. 4C, P<0.03 (PRZ), <0.05 (6-OHDA)
Excerpt: The hepatic non-parenchymal cell fraction, which contains the oval cell population and the NK-T cell populations, were isolated as described in Hepatology 1998; 27:433-455 and Gastroenterology 2002; 123:[…]. Briefly, livers were carefully removed and homogenized in Stomacher80 (Seawood, England). The homogenate was then passed through a 100-μm wire mesh and liver cells were collected by centrifugation at 450 g. Mononuclear cells were purified from this fraction by centrifugation at 900 g over 35% Percoll gradients (Amersham Pharmacia Biotech) and incubated with normal mouse serum (Sigma, St Louis, Mo.) and Fc-receptor block (anti-CD16/CD32) to prevent nonspecific binding, plus APC-conjugated anti-mouse Thy-1.2 (the C57BL-6 form of the Thy-1 antibody) and antibodies directed against hematopoietic lineage markers (LIN, a mix of anti-mouse CD4, CD8, CD3, CD45, CD19, Mac-1, Gr-1, Ter119). For NK-T cell labelling, the mononuclear cells were incubated with […] anti-mouse NK-1.1 and PE-conjugated anti-mouse CD3. […] After incubation, pellets were washed to remove unbound antibodies, fixed with 2% formaldehyde and evaluated by FACS (Becton Dickenson). […] Data was analyzed by Cell Quest software (Becton Dickenson) to determine changes in these cell populations in different treatment groups.

oval cells = test: Immunohistochemical count of hepatic oval cells (HPC) in HMCDE-fed mice; assay type: in vivo, mouse; conditions: FIGS. 4A-4C, immunohistochemistry (and flow cytometry), P<0.001
Protocol: Immunohistochemical analysis of HPC was performed with a mouse monoclonal OV6-type antibody (from Dr Stuart Sell, Albany Medical College, Albany, N.Y.) reacting with cytokeratins 14 and 19; a rabbit polyclonal antibody against 56 and 64 kD human callus cytokeratins (Dako, Denmark) and a rat monoclonal antibody to cytokeratin 19 as described Am J Pathol 2002; 161:521-530.
Details of the staining procedures are as described Am J Pathol 2002; 161:521-530. Briefly, 4 um thick paraffin sections were deparaffinized and rehydrated, followed by heating in a microwave oven for 10 minutes at 750 Watt in citrate buffer, pH 6.0. Incubation with the primary antibodies was performed at room temperature for 30 minutes. Mouse monoclonal OV6 antibody and rat anti-cytokeratin 19 were detected using the DAKO Animal Research Kit, peroxidase (Dako, Denmark). The rabbit polyclonal antibody against 56 and 64 kD human callus cytokeratins was detected by anti-rabbit Envision (Dako, Denmark) as described in J Pathol 2003; 199:191-200. […]
To evaluate the effect of treatments on the HPC compartment, coded samples were examined by an experienced liver pathologist blinded to treatment groups. For each liver section, the number of HPC in 5, randomly selected, non-overlapping, high power (×40 objective) fields was counted. […] Interlobular bile ducts were not considered progenitor cells and, thus, were not counted as such.

VEGFR3 = test: Ribonuclease protection assay of whole liver RNA: VEGFR3; assay type: in vivo, mouse; conditions: RPA, normalized to GAPDH, mean±SEM of 4 mice, HMCDE diet
Protocol: as §1, §2, §3

VEGF = test: Ribonuclease protection assay of whole liver RNA: VEGF; assay type: in vivo, mouse; conditions: RPA, normalized to GAPDH, mean±SEM of 4 mice, HMCDE diet
Protocol: as §1, §2, §3

HGF = test: Ribonuclease protection assay of whole liver RNA: HGF; assay type: in vivo, mouse; conditions: for effect on HMCDE-induced increase of hepatic HGF expression: versus HMCDE alone; for Gene Expression HGF: whole liver RNA, RPA, normalized to GAPDH, mean±SEM of 4 mice, HMCDE diet
Protocol: as §1
Total RNA was isolated from frozen liver samples as described in Mech Dev 120: 117-130, 2003. RNA concentration was determined by optical density and quality assessed by agarose gel electrophoresis and ethidium bromide staining. Ribonuclease protection assay (RPA) kits with probes for murine cytokines (PharMingen, San Diego, Calif.) were used to evaluate factors that might be involved in the recruitment and expansion of HPC after liver injury. The factors studied were Stem Cell Factor (SCF), Hepatocyte Growth Factor ([…]), Interleukin-6 (IL-6), IL7, IL-11, Leukaemia Inhibitory Factor (LIF), Granulocyte-Macrophage Colony Stimulating Factor (GM-CSF), Macrophage Colony Stimulating Factor (M-CSF), Granulocyte Colony Stimulating Factor (G-CSF), Vascular Endothelial Growth Factor (VEGF), and its receptors, VEGFR1 and YEGFR3.
In Table 1, Total liver RNA was obtained from 4 mice per treatment group and analyzed by RPA 20 μg RNA sample from each mouse was evaluated. Results are normalized to concurrently assessed expression of GAPDH in the same RNA samples. Data shown are the mean±SEM results of 4 mice per treatment group. Similar results were obtained in a second experiment.

[1] = tested on: bone marrow-derived hematopoietic progenitors; conditions: treatment of mice, shown hitherto; cited from earlier work

SMILES | Gene Expression G-CSF (G-CSF) | Gene Expression VEGFR1 (VEGFR1) | LIN^−ve/Thy-1^+ve cells in liver versus HMCDE diet alone (LIN^−ve/Thy-1^+ve cells) | oval cell / HPC number versus HMCDE diet alone (oval cells) | Gene Expression VEGFR3 (VEGFR3) | Gene Expression VEGF (VEGF) | effect on HMCDE-induced increase of hepatic HGF expression (HGF) | Gene Expression HGF (HGF) | mobilization of hematopoietic progenitors [1]
COc1cc2nc(N3CCN(C(=O)c4ccco4)CC3)nc(N)c2cc1OC [PRZ, prazosin] | 1.0 ± 0.3 | 0.2 ± 0.2 | more LIN^−ve/Thy-1^+ve cells | significantly augments diet-induced HPC expansion | 1.7 ± 0.4 | 1.4 ± 0.4 | did not augment this response | 2.1 ± 0.30 | mobilize bone marrow-derived hematopoietic progenitors into the circulation
NCCc1cc(O)c(O)cc1O [6-OHDA, 6-hydroxydopamine] | 1.4 ± 0.3 | 0.4 ± 0.1 | more LIN^−ve/Thy-1^+ve cells | significantly augments diet-induced HPC expansion | 2.1 ± 1.0 | 2.3 ± 0.5 | did not augment this response | 2.4 ± 0.75 | mobilize bone marrow-derived hematopoietic progenitors into the circulation
